Reference: patent publication US10231954B2, “Neurodegenerative therapies” (LYTIX BIOPHARMA AS, priority 2014, dated 2019)

Legend:
Assay type in all cases: biochemical
ROCK 2 = ROCK 2 (Homo sapiens, UniProt O75116); test: Kinase profiling ROCK 2; details: 100 micromolar inhibitor concentration, 100 is no change; for remaining activity at 100 µM: read-out: residual kinase activity, ROCK 2
Text: (§1) Any value less that 25 is considered to be highly significant inhibition.

MKK6 = molecular target: T1, MKK6 (Homo sapiens, UniProt P52564); test: Kinase profiling MKK6; details: 100 micromolar inhibitor concentration, 100 is no change; for remaining activity at 100 µM: read-out: residual kinase activity, MKK6
T1 sequence (P52564 1-334): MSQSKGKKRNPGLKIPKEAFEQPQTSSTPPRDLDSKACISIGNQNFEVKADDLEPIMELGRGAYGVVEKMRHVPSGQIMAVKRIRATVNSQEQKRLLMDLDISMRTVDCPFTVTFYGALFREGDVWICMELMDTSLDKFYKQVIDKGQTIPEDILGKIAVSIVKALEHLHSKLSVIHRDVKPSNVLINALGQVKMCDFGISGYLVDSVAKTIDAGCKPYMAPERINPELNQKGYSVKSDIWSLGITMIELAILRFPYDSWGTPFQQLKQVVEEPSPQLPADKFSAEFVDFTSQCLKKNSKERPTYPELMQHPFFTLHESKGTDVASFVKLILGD
Text: as §1

EPH-A2 = EPH-A2 (Homo sapiens, UniProt P29317); test: Kinase profiling EPH-A2; details: 100 micromolar inhibitor concentration, 100 is no change; for remaining activity at 100 µM: read-out: residual kinase activity, EPH-A2
Text: as §1

HIPK2 = HIPK2 (Homo sapiens, UniProt Q9H2X6); test: Kinase profiling HIPK2; details: 100 micromolar inhibitor concentration, 100 is no change; for remaining activity at 100 µM: read-out: residual kinase activity, HIPK2
Text: as §1

EF2K = EF2K (Homo sapiens, UniProt O00418); test: Kinase profiling EF2K; details: 100 micromolar inhibitor concentration, 100 is no change; for remaining activity at 100 µM: read-out: residual kinase activity, EF2K
Text: as §1

PKCz = molecular target: T2, PKCz (Homo sapiens, UniProt Q05513); test: Kinase profiling PKCz; details: 100 micromolar inhibitor concentration, 100 is no change; for remaining activity at 100 µM: read-out: residual kinase activity, PKCz
T2 sequence (Q05513 1-592): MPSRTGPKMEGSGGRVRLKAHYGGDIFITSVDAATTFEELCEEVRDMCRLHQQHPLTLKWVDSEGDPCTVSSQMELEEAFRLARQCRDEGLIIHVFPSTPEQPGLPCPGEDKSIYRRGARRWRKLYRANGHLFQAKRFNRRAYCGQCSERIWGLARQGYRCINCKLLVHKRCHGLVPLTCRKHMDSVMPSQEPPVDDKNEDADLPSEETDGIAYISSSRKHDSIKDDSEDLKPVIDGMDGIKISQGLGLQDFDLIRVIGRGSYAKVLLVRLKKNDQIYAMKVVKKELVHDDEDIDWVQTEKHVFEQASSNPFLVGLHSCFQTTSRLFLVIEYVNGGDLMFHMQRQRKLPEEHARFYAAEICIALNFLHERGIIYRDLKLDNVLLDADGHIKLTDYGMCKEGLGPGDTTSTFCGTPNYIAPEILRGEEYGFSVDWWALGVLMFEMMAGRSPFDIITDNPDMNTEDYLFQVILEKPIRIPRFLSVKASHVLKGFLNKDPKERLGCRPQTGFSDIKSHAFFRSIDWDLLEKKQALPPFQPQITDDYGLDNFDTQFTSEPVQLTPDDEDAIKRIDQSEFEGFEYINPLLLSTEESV
Text: as §1

SRPK1 = SRPK1 (Homo sapiens, UniProt Q96SB4); test: Kinase profiling SRPK1; details: 100 micromolar inhibitor concentration, 100 is no change; for remaining activity at 100 µM: read-out: residual kinase activity, SRPK1
Text: as §1

MKK2 = MKK2 (Homo sapiens, UniProt P36507); test: Kinase profiling MKK2; details: 100 micromolar inhibitor concentration, 100 is no change; for remaining activity at 100 µM: read-out: residual kinase activity, MKK2
MKK2, sequence (P36507 whole entry, species assumed): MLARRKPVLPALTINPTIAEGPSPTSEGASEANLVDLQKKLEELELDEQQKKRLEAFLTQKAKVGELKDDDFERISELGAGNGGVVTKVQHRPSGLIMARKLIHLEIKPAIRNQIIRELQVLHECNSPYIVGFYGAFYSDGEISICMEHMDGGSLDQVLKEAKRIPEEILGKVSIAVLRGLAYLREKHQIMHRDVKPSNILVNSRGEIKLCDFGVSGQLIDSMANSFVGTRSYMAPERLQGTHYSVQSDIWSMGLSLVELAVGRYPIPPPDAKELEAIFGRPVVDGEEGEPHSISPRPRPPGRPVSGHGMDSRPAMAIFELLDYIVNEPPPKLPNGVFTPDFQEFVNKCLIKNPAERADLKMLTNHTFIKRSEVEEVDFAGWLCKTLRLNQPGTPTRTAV
Text: as §1

PKA = PKA (Homo sapiens, UniProt P17612); test: Kinase profiling PKA; details: 100 micromolar inhibitor concentration, 100 is no change; for remaining activity at 100 µM: read-out: residual kinase activity, PKA
Text: as §1

PKBa = PKBa (Homo sapiens, UniProt P31749); test: Kinase profiling PKBa; details: for remaining activity at 100 µM: read-out: residual kinase activity, PKBa
PKBa, sequence (P31749 whole entry): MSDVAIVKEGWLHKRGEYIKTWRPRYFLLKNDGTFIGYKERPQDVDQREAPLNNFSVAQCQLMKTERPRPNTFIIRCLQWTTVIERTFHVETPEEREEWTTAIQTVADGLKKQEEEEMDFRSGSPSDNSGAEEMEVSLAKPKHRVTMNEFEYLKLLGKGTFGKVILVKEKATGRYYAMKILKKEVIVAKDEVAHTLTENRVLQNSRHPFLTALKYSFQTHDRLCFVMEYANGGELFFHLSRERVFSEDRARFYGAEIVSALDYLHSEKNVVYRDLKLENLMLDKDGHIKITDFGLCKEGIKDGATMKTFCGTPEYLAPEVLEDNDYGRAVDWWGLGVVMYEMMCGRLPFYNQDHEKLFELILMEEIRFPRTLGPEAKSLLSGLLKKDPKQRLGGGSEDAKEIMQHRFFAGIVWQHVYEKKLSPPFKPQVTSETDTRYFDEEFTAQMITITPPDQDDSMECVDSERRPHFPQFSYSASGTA
Text: as §1

Lck = Lck (Homo sapiens, UniProt P06239); test: Kinase profiling Lck; details: 100 micromolar inhibitor concentration, 100 is no change; for remaining activity at 100 µM: read-out: residual kinase activity, Lck
Lck, sequence (P06239 whole entry, species assumed): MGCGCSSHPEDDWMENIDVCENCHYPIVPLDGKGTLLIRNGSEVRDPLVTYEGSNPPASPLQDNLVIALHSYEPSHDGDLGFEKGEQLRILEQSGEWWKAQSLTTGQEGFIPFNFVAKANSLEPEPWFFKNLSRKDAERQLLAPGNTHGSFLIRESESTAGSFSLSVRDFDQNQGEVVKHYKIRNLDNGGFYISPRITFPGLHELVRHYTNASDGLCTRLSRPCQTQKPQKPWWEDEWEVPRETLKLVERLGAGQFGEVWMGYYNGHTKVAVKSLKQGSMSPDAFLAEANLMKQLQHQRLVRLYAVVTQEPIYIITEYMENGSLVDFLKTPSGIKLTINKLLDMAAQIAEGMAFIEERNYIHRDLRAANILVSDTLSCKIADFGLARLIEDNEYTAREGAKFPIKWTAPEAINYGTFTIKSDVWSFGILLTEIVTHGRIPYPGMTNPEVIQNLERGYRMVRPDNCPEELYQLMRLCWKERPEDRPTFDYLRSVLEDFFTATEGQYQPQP
Text: as §1

JAK2 = JAK2 (Homo sapiens, UniProt O60674); test: Kinase profiling JAK2; details: 100 micromolar inhibitor concentration, 100 is no change; for remaining activity at 100 µM: read-out: residual kinase activity, JAK2
JAK2, sequence (O60674 whole entry, species assumed): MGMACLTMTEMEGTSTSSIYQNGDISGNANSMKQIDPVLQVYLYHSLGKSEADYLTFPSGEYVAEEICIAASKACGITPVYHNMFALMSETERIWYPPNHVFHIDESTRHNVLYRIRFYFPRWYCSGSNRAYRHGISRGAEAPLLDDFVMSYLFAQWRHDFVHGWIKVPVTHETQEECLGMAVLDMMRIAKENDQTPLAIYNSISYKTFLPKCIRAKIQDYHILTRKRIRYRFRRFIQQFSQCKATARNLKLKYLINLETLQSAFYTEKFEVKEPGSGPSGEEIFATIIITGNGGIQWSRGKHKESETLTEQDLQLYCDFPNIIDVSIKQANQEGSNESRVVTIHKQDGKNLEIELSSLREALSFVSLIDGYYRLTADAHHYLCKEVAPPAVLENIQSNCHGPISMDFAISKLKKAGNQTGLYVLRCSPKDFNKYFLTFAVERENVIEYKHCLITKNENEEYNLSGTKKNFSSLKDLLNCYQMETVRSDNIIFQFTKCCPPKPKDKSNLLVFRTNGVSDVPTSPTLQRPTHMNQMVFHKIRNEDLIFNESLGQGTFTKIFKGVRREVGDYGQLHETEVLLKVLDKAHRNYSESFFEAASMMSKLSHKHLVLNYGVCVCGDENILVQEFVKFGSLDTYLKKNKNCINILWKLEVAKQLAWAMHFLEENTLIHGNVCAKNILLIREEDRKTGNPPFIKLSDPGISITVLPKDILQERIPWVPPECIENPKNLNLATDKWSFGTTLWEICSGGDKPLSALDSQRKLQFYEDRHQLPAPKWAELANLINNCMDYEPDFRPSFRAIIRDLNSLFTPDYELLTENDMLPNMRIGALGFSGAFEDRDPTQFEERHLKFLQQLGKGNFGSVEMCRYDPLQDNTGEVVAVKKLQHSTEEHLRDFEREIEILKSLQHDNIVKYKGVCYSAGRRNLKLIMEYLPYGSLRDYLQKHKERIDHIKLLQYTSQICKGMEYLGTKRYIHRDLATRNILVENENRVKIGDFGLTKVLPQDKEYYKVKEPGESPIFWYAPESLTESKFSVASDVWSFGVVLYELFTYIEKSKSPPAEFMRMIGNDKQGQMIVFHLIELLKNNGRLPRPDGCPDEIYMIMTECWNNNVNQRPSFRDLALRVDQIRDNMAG
Text: as §1

JNK2 = JNK2 (Homo sapiens, UniProt P45984); test: Kinase profiling JNK2; details: 100 micromolar inhibitor concentration, 100 is no change; for remaining activity at 100 µM: read-out: residual kinase activity, JNK2
JNK2, sequence (P45984 whole entry, species assumed): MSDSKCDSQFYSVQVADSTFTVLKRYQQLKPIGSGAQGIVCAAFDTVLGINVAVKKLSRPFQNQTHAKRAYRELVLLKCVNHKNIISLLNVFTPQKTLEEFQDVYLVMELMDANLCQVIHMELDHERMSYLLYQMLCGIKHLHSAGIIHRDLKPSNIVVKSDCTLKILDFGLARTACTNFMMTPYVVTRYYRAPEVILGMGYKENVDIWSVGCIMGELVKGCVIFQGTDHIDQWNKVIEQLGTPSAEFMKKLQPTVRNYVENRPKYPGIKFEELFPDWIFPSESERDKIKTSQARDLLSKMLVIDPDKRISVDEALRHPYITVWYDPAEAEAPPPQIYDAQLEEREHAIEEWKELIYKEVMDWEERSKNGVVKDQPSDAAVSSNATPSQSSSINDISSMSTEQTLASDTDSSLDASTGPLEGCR
Text: as §1

TTK = molecular target: T3, TTK (Homo sapiens, UniProt P33981); test: Kinase profiling TTK; details: 100 micromolar inhibitor concentration, 100 is no change; for remaining activity at 100 µM: read-out: residual kinase activity, TTK
T3 sequence (P33981 1-857): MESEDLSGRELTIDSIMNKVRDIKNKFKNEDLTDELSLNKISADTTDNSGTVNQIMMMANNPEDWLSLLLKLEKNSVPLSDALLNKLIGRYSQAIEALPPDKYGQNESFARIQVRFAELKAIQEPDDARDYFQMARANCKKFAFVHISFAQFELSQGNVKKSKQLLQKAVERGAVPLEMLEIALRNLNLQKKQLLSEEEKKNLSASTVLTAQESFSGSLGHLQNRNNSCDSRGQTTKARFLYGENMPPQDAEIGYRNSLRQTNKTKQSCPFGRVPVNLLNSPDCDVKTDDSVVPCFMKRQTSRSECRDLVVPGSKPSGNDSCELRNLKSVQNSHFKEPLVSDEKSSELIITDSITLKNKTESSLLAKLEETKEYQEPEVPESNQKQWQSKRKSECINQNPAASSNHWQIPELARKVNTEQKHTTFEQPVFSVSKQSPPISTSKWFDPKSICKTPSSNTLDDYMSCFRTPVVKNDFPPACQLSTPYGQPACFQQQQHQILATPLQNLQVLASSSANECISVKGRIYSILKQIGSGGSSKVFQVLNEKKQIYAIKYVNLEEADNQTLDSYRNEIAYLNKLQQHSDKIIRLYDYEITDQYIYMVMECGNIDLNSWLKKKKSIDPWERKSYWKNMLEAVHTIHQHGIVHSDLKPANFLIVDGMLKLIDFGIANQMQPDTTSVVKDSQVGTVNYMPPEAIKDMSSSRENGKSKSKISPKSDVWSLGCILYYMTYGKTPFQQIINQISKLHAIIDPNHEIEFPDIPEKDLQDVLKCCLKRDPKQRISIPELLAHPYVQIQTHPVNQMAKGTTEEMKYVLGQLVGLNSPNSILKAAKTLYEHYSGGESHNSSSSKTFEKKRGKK
Text: as §1

CAMK1 = CAMK1 (Homo sapiens, UniProt Q14012); test: Kinase profiling CAMK1; details: 100 micromolar inhibitor concentration, 100 is no change; for remaining activity at 100 µM: read-out: residual kinase activity, CAMK1
Text: as §1

NEK6 = NEK6 (Homo sapiens, UniProt Q9HC98); test: Kinase profiling NEK6; details: 100 micromolar inhibitor concentration, 100 is no change; for remaining activity at 100 µM: read-out: residual kinase activity, NEK6
Text: as §1

MKK1 = MKK1 (Homo sapiens, UniProt Q02750); test: Kinase profiling MKK1; details: 100 micromolar inhibitor concentration, 100 is no change; for remaining activity at 100 µM: read-out: residual kinase activity, MKK1
MKK1, sequence (Q02750 whole entry, species assumed): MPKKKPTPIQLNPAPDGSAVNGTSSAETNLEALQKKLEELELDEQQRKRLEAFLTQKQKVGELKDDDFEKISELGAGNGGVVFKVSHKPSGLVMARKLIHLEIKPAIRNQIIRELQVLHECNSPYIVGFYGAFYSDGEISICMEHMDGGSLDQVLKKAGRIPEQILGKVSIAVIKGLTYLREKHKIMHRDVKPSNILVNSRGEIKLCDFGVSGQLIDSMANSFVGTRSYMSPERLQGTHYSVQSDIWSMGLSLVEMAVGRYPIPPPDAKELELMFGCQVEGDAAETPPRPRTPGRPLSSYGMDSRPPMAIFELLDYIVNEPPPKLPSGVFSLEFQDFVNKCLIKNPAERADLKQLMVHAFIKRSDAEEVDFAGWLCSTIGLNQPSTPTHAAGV
Text: as §1

Src = Src (Homo sapiens, UniProt P12931); test: Kinase profiling Src; details: 100 micromolar inhibitor concentration, 100 is no change; for remaining activity at 100 µM: read-out: residual kinase activity, Src
Src, sequence (P12931 whole entry, species assumed): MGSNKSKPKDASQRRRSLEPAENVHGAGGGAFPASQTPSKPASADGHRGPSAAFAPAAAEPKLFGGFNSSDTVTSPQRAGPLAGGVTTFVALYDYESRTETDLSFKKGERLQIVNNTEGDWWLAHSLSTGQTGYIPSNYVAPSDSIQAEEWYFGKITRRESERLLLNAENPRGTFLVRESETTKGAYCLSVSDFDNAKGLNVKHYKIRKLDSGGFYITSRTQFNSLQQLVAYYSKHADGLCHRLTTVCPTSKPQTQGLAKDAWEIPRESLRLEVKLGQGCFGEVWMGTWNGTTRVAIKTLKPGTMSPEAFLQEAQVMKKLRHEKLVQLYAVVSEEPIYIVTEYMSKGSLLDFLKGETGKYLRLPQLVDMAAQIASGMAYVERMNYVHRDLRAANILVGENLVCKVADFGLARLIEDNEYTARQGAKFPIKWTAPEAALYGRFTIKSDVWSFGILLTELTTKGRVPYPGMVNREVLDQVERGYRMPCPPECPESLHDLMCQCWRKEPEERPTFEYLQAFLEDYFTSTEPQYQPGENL
Text: as §1

ERK2 = ERK2 (Homo sapiens, UniProt P28482); test: Kinase profiling ERK2; details: 100 micromolar inhibitor concentration, 100 is no change; for remaining activity at 100 µM: read-out: residual kinase activity, ERK2
ERK2, sequence (P28482 whole entry, species assumed): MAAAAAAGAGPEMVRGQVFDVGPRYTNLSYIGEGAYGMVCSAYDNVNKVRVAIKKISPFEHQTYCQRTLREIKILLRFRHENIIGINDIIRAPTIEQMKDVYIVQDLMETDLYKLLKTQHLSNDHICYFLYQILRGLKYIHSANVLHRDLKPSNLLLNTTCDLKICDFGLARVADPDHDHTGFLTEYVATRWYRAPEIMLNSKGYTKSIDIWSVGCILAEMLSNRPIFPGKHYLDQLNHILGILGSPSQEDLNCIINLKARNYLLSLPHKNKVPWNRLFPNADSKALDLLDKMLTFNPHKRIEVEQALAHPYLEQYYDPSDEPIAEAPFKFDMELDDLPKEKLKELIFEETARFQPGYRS
Text: as §1

RSK2 = RSK2 (Homo sapiens, UniProt P51812); test: Kinase profiling RSK2; details: 100 micromolar inhibitor concentration, 100 is no change; for remaining activity at 100 µM: read-out: residual kinase activity, RSK2
RSK2, sequence (P51812 whole entry, species assumed): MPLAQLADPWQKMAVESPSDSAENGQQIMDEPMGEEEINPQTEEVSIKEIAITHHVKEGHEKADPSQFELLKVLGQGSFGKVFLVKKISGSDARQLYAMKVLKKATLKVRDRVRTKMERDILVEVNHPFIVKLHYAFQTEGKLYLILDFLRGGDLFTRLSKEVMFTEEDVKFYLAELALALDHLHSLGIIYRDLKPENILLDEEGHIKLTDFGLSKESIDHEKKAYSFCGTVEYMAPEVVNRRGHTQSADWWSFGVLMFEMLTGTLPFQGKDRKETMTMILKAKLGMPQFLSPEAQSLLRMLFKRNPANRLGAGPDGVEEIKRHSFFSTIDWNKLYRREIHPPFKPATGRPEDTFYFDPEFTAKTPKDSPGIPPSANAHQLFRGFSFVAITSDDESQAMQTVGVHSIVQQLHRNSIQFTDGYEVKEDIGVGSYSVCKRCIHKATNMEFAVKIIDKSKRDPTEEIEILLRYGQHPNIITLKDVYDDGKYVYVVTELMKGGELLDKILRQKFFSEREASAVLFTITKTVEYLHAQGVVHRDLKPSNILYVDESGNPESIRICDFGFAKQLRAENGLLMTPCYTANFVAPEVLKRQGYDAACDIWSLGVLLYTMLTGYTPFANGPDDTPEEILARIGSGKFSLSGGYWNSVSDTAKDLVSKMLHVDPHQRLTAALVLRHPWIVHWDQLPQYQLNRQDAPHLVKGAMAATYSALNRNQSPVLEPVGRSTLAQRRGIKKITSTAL
Text: as §1

| SMILES | remaining activity at 100 µM (ROCK 2) [%] | remaining activity at 100 µM (MKK6) [%] | remaining activity at 100 µM (EPH-A2) [%] | remaining activity at 100 µM (HIPK2) [%] | remaining activity at 100 µM (EF2K) [%] | remaining activity at 100 µM (PKCz) [%] | remaining activity at 100 µM (SRPK1) [%] | remaining activity at 100 µM (MKK2) [%] | remaining activity at 100 µM (PKA) [%] | remaining activity at 100 µM (PKBa) [%] | remaining activity at 100 µM (Lck) [%] | remaining activity at 100 µM (JAK2) [%] | remaining activity at 100 µM (JNK2) [%] | remaining activity at 100 µM (TTK) [%] | remaining activity at 100 µM (CAMK1) [%] | remaining activity at 100 µM (NEK6) [%] | remaining activity at 100 µM (MKK1) [%] | remaining activity at 100 µM (Src) [%] | remaining activity at 100 µM (ERK2) [%] | remaining activity at 100 µM (RSK2) [%] | further results |
| --- | --- | --- | --- | --- | --- | --- | --- | --- | --- | --- | --- | --- | --- | --- | --- | --- | --- | --- | --- | --- | --- |
| CC(=O)Nc1nc2ccc(C#N)cc2s1 [Compound 01-94] | 69 | 98 | 73 | 23 | 98 | 80 | 47 | 54 | 93 | 95 | 168 | 33 | 82 | 33 | 80 | 86 | 34 | 94 | 91 | 87 |  |
| O=C(Nc1nc2cc(O)ccc2s1)c1ccncc1 [Compound 03-11] |  |  |  |  |  |  |  |  |  |  |  |  |  |  |  |  |  |  |  |  | residual kinase activity, ROCK 2 (ROCK 2): 80; residual kinase activity, MKK6 (MKK6): 101; residual kinase activity, EPH-A2 (EPH-A2): 84; residual kinase activity, HIPK2 (HIPK2): 67; residual kinase activity, EF2K (EF2K): 79; residual kinase activity, PKCz (PKCz): 86; residual kinase activity, SRPK1 (SRPK1): 66; residual kinase activity, MKK2 (MKK2): 98; residual kinase activity, PKA (PKA): 110; residual kinase activity, PKBa (PKBa; 100 micromolar inhibitor concentration, 100 is no change): 88; residual kinase activity, Lck (Lck): 93; residual kinase activity, JAK2 (JAK2): 66; residual kinase activity, JNK2 (JNK2): 93; residual kinase activity, TTK (TTK): 74; residual kinase activity, CAMK1 (CAMK1): 85; residual kinase activity, NEK6 (NEK6): 72; residual kinase activity, MKK1 (MKK1): 88; residual kinase activity, Src (Src): 79; residual kinase activity, ERK2 (ERK2): 85; residual kinase activity, RSK2 (RSK2): 71 |
| COc1ccc2sc(NC(C)=O)nc2c1 [Compound 03-21] | 52 | 117 | 89 | 25 | 105 | 85 | 84 | 90 | 11 | 91 | 109 | 88 | 92 | 67 | 81 | 108 | 64 | 86 | 109 | 94 |  |
| CC(=O)Nc1nc2cc(C(F)(F)F)ccc2s1 [Compound 03-73] | 83 | 120 | 99 | 51 | 109 | 97 | 72 | 98 | 124 | 106 | 101 | 96 | 111 | 86 | 89 | 119 | 96 | 74 | 108 | 83 |  |
| CC(=O)Nc1nc2cc(F)ccc2s1 [Compound 03-77] | 37 | 118 | 106 | 22 | 99 | 110 | 65 | 101 | 95 | 95 | 96 | 57 | 99 | 64 | 106 | 96 | 87 | 80 | 99 | 83 |  |
